According to US11241442B2, “Methods of use for TRP channel antagonist-based combination cancer therapies” (President and Fellows of Harvard College, priority 2017, dated 2022):

Legend:
[1] = system: HCC1569 cells; assay: Live cell number and cell death under carboplatin in HCC1569 cells; format: cell-based; settings: carboplatin 72 h
Procedure: For the measurements of live cell number and cell death under treatment with H2O2, diamide, or chemotherapies, cells were cultured on 96-well plates in the presence or absence of these drugs for indicated times and stained with 5 μM bisBenzimide H 33342 trihydrochloride (Hoechst; Sigma) and 5 μM propidium iodide (PI; Sigma) for 1 h at 37° C. Hoechst- and/or PI-positive cells were counted using a laser scanning cytometer, Acumen Cellista (TTPLabTech). Apoptotic cells induced by H2O2 treatment were measured by staining with Annexin V-Alexa Fluor® 488 conjugate (Life Technologies) and PI in Ca^2+-containing solution (10 mM HEPES pH 7.4, 140 mM NaCl; 2.5 mM CaCl2), followed by flow cytometric measurement of fluorescence using a FACSCalibur. Flow cytometry plots are representative of three independent experiments. For the counting of viable cells cultured in suspension, cell clumps were dissociated with trypsin and stained with trypan blue. Viable cells were counted using the Countless Automated Cell Counters (Thermo Fisher Scientific). For the measurement of percentage of dead cells cultured in suspension, cells were cultured on poly HEMA-coated 96-well plates and stained with 5 μM Hoechst and 5 μM PI for 1 h at 37° C. without enzymatic dissociation of cell clumps. Hoechst- and/or PI-positive areas were measured using Acumen Cellista. Apoptotic cells induced by detachment were measured by staining with 5 μM Hoechst and 5 μM of CellEvent™ Caspase-3/7 Green Detection Reagent (Thermo Fisher Scientific) for 1 h at 37° C. without enzymatic dissociation of cell clumps. Hoechst- and/or CellEvent™ Caspase-3/7 Green Detection Reagent-positive areas were measured using Acumen Cellista. For the cell cycle analysis, enzymatically dissociated cells were fixed with ice-cold 70% EtOH for at least 30 min at 4° C., washed three times with PBS at 4° C., resuspended in PBS, treated with 100 μg/ml RNase A (Sigma), and stained with 50 μg/ml PI. The stained samples were subjected to flow cytometric analysis (FACSCalibur).

[2] = target: T1, TRPA1 (Homo sapiens, UniProt O75762); assay: Ca2+ responses to carboplatin in HCC1569 cells; format: cell-based; settings: 10 μM AP-18 or 300 nM A-967079
T1 construct: endogenous in cells; host or cells: HCC1569 breast cancer cells (2D culture or 3D spheroids; shGFP or shTRPA1 transduced)
T1 sequence (O75762 whole entry): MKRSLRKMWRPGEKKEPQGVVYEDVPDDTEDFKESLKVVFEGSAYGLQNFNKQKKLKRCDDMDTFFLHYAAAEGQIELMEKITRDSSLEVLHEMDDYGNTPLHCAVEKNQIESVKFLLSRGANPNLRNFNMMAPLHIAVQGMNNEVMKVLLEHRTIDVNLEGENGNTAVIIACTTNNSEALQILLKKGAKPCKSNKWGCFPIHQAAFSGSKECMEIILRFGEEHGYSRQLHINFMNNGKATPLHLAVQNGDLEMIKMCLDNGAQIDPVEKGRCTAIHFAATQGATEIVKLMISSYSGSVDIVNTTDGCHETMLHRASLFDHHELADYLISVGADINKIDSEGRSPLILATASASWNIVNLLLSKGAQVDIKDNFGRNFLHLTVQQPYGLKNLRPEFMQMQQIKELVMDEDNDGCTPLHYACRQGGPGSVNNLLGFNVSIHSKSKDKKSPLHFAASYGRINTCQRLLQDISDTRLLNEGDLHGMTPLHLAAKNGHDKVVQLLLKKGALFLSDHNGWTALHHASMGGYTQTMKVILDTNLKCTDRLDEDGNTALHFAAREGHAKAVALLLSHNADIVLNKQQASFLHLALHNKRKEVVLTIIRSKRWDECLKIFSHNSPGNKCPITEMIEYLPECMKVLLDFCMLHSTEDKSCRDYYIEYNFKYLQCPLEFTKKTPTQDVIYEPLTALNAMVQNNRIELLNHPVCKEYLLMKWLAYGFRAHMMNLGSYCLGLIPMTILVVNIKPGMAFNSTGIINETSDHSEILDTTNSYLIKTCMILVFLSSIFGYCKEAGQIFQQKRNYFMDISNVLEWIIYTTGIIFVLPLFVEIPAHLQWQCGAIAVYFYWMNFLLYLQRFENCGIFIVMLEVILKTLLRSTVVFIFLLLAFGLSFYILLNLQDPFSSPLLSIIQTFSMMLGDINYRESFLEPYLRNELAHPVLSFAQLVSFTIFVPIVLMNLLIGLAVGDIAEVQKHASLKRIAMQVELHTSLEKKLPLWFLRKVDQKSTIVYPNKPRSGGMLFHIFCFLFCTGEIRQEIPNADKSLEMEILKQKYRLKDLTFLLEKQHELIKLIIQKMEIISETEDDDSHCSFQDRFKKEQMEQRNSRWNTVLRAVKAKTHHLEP
Procedure: (§1) For the measurement of [Ca^2+]i levels in cells cultured in 2D or 3D (in Matrigel), cells were stained with 3.5 μM fura-2-AM (Life Technology) in the presence of 2.5 mM probenecid (Sigma) and 0.02% Pluronic F-127 (Sigma) for 45 min at 37° C. The fura-2 fluorescence was measured in HBS solution containing 1.25 mM probenecid at 37° C. Fluorescence images of the cells were acquired through the Eclipse Ti-E microscope with ORCA-R2 cooled CCD camera and analyzed with Metafluor. The 340:380-nm ratio images were obtained on a pixel-by-pixel basis and were converted to Ca^2+ concentrations by in vivo calibration using 5 μM ionomycin as described previously (Nishida et al., Biochem. Biophys. Res. Commun., 262:350-354, 1999). 3D images are shown as one section from midstructure. For the measurement of [Ca^2+]i levels in cells cultured in suspension, cell clumps were dissociated with trypsin and [Ca^2+]i levels were determined by using Fluo-4 NW Calcium Assay Kit (Molecular Probes). Cells were stained with Fluo-4 according to the manufacturer's instructions and subjected to flow cytometric analysis (FACSCalibur) using HBS as sheath fluid. [Ca^2+]i levels determined by flow cytometry are reported as mean fluorescence intensity expressed in arbitrary units. Time courses of [Ca^2+]i rises in 2D culture are representative of three independent experiments and averaged Δ[Ca^2+]i represents mean±SEM from the sum of three independent experiments. Fura-2 ratio images in 3D culture are representative of two independent experiments and averaged [Ca^2+]i in 3D culture represents mean±SEM from the sum of two independent experiments.

[3] = system: HCC1569 spheroids; assay: [H2O2]i by Hyper-2 in HCC1569 spheroids; format: cell-based; settings: AP-18, 300 nM A-967079 or 5 mM NAC
Procedure: (§2) For the measurement of [H2O2]i levels in MCF-10A acini and HCC1569 spheroids, cells were transduced with a lentiviral vector encoding Hyper-2 or Hyper-2 (C199S). The Hyper-2 fluorescence was measured at 37° C. in HEPES-buffered saline (HBS) containing the following (in mM): 150 NaCl, 6 KCl, 1.2 MgSO4, 2 CaCl2, 11.5 glucose, and 25 HEPES (pH adjusted to 7.4 with NaOH). Fluorescence images of the cells were acquired through the Eclipse Ti-E microscope (Nikon) with ORCA-R2 cooled CCD camera (Hamamatsu Photonics) and analyzed with Metafluor image acquisition software (Molecular Devices). The 488:405-nm ratio images were obtained on a pixel-by-pixel basis. 3D images are shown as one section from midstructure. For the measurement of [H2O2]i levels in MCF-10A cells cultured in suspension, cell clumps were dissociated with trypsin and stained with 10 μM peroxy green-1 for 30 min at 37° C. Cells were then subjected to flow cytometric analysis (FACSCalibur; BD Biosciences). ROS levels determined by flow cytometry are reported as mean fluorescence intensity expressed in arbitrary units. Hyper-2 ratio images are representative from two independent experiments and averaged Hyper-2 ratio represents mean±SD from the sum of two independent experiments.

[4] = system: TRPA1; assay: [Ca2+]i by fura-2 in TRPA1-expressing MCF-10A 3D acini; format: cell-based; settings: inner ECM-deprived region of MCF-10A acini
Procedure: as §1

[5] = target: T1, TRPA1; assay: [Ca2+]i by fura-2 in HCC1569 spheroids; format: cell-based; settings: AP-18, 300 nM A-967079 or 5 mM NAC
Procedure: as §1

[6] = system: MCF-10A acini; assay: [H2O2]i by Hyper-2 in MCF-10A 3D acini; format: cell-based
Procedure: as §2

[7] = system: HCC1569 cells; assay: Soft agar anchorage-independent growth of HCC1569 cells; format: cell-based
Procedure: (§3) Cells were added to the regular MCF-10A or HCC1569 growth media (±AP-18, A-967079, or Trolox) plus 0.4% low-melt agarose (Sigma) and layered onto a bed of growth media plus 0.5% low-melt agarose. Cells were fed every 4 days with growth media (±AP-18, A-967079, or Trolox) plus 0.4% low-melt agarose. At the indicated times, viable colonies were stained with iodonitrotetrazolium chloride (Sigma). Colony number and colony size were determined using ImageJ. Images shown are representative of at least three independent experiments.

[8] = in vivo; cited from earlier work
[9] = system: EL-12-58 xenograft tumors; assay: EL-12-58 xenograft tumor growth in NRG mice; format: in vivo
[10] = system: MCF-10A cells; assay: [H2O2]i by peroxy green-1 flow cytometry in ECM-detached MCF-10A cells; format: cell-based; settings: 1 mM NAC; 24 h after plating in non-adherent plates
Procedure: as §2

[11] = target: T1, TRPA1; assay: [Ca2+]i by Fluo-4 flow cytometry in ECM-detached TRPA1-expressing MCF-10A cells; format: cell-based; settings: 1 mM NAC; 24 h after plating in non-adherent plates
Procedure: as §1, with “Time courses of [Ca^2+]i rises in 2D culture are representative of three independent experiments and averaged Δ[Ca^2+]i represents mean±SEM from the sum of three independent experiments. Fura-2 ratio images in 3D culture are representative of two independent experiments and averaged [Ca^2+]i in 3D culture represents mean±SEM from the sum of two independent experiments.” left out

[12] = system: MCF-10A cells expressing HER2; assay: Soft agar colony formation of MCF-10A cells expressing HER2; format: cell-based
Procedure: as §3

[13] = Weight loss of EL-12-58 xenograft animals; format: in vivo, mice; settings: mean±SD
Procedure: (§4) All animal studies were performed according to protocols approved by the Institutional Animal Care and Use Committee, the Standing Committee on Animals at Harvard University. One million HCC1569 cells stably expressing either TRPA1 or GFP (control) shRNAs were injected into cleared mammary fatpads of 8-week-old female NOD-Rag1^null IL2rg^null (NRG) mice. Tumor volume (mm^3) was monitored by caliper measurements in two perpendicular dimensions (the formula: (d^2×D)/2, where d and D represent the shortest and longest diameters, respectively) at the indicated time points. After tumors reached 3 to 5 mm in diameter, animals were randomized into the following treatment arms: (i) 37.5 mg/kg carboplatin or (ii) its vehicle (H2O) administrated via intraperitoneal injection for HCC1569 cell-transplanted animals; (i) oral administration of 30.0 mg/kg AM-0902, (ii) intraperitoneal administration of 37.5 mg/kg carboplatin, (iii) oral administration of 30.0 mg/kg AM-0902 plus intraperitoneal administration of 37.5 mg/kg carboplatin, or (iv) oral administration of 1% Tween 80/2% HPMC/97% water/methanesulfonic acid pH 2.2 (vehicle for AM-0902) plus intraperitoneal administration of H2O (vehicle for carboplatin) for EL-12-58 cell-transplanted animals. Power calculations are based on the standard deviation and effect size from pilot experiments in HCC1569 cells. The sample size of seven mice per group provides greater than 95% power to detect a ˜80% difference in change in tumor volume between control and shTRPA1-treated cells with a two-sided type I error rate of 5%. Averaged tumor volume represents mean±SEM.

[14] = system: HCC1569 cells; assay: HCC1569 xenograft tumor growth in NRG mice; format: in vivo
Procedure: as §4, with “The sample size of seven mice per group provides greater than 95% power to detect a ˜80% difference in change in tumor volume between control and shTRPA1-treated cells with a two-sided type I error rate of 5%. Averaged tumor volume represents mean±SEM.” left out
Unstained breast cancer and normal breast tissue arrays were purchased from US Biomax (BR1504a for breast tumors, BN08111 for normal breast tissues). […] Tumor slides stained for TRPA1, blinded and were evaluated by light microscopy and scored by a veterinary pathologist. Images of tissue sections were captured at 4× magnification to create a merged image of the entire section and at 20× magnification for quantification of cleaved caspase-3-positive nuclei, using a Olympus VS120 Slide Scanner. […] Relative apoptosis was quantified by determining the percentage of cleaved caspase-3-positive cells from more than five random fields, per section, from each tumor in the group, and normalized to the shGFP-expressing tumors treated with vehicle. […]

[15] = system: HCC1569 cells; settings: cited from earlier work

CCC(=N\O)/C(C)=C/c1ccc(F)cc1 [A-967079]
cell death in response to carboplatin treatment [1]: enhanced | live cell number in response to carboplatin treatment [1]: substantially suppressed | [Ca2+]i rises upon carboplatin treatment [2]: significantly suppressed | oscillatory Ca2+ responses upon carboplatin treatment [2]: significantly suppressed | increase in [H2O2]i (Hyper-2) in inner region of spheroids [3]: unaffected | TRPA1- or E681K-induced [Ca2+]i rises [4]: abolished | elevated [Ca2+]i of inner cells of spheroids [5]: suppressed | increase in [H2O2]i (Hyper-2) in inner ECM-deprived cells [6]: unaffected | anchorage-independent growth (number and average size of colonies) [7]: impaired

Cn1cnc2ncn(Cc3nc(CCc4ccc(Cl)cc4)no3)c(=O)c21 [AM-0902]
plasma half-life (T1/2) [8]: 2.8 h | tumor volume / tumor growth ([9]; AM-0902 30.0 mg/kg oral twice daily, carboplatin 37.5 mg/kg intraperitoneal): reduced | tumor mass ([9]; at end point, AM-0902 30.0 mg/kg oral twice daily, carboplatin 37.5 mg/kg intraperitoneal): reduced | live tumor cell area relative to total area (H&E) ([9]; compared with vehicle or single carboplatin treatment): reduced

CC(=O)N[C@@H](CS)C(=O)O [NAC, N-Acetyl-L-cysteine]
detachment-induced increase in [H2O2]i [10]: suppressed | TRPA1-mediated chemoresistance to carboplatin ([1]; 5 mM NAC): largely eliminated | detachment-induced TRPA1-dependent increase in [Ca2+]i [11]: abolished | increase in [H2O2]i (Hyper-2) in inner region of spheroids [3]: abolished | TRPA1- or E681K-induced [Ca2+]i rises [4]: abolished | elevated [Ca2+]i of inner cells of spheroids [5]: suppressed | increase in [H2O2]i (Hyper-2) in inner ECM-deprived cells [6]: abolished

Cc1c(C)c2c(c(C)c1O)CCC(C)(C(=O)O)O2 (stereo not drawn) [Trolox]
colony number and size ([12]; Trolox treatment): strongly increased | TRPA1-induced increase in number and average size of colonies ([12]; wild-type or E681K TRPA1 expression): eliminated

N.N.O=C([O-])C1(C(=O)[O-])CCC1.[Pt+2] [carboplatin]
averaged weight loss ([13]; day 26): 3.94±1.02% | averaged weight loss ([13]; day 29): 7.01±2.80% | averaged weight loss ([13]; day 32): 10.3±3.36% | tumor response to carboplatin ([14]; tumors expressing shGFP (control), 37.5 mg/kg carboplatin intraperitoneal twice a week): resistant | tumor growth after carboplatin treatment ([14]; tumors expressing shTRPA1, 37.5 mg/kg carboplatin intraperitoneal twice a week): significant reduction | apoptosis (cleaved caspase-3 staining of tumor sections) ([14]; tumors expressing shTRPA1, carboplatin treatment): increased

N.N.[Cl][Pt][Cl] [cisplatin]
Resistance rank among 893 cancer cell lines [15]: 45 | resistance z-score [15]: 1.54
